Reference: US10624946B2, “Treating liver diseases” (Mayo Foundation for Medical Education and Research, priority 2005, dated 2020)

Experiments:
PCK rats [1] = test: Hepatic and renal laboratory parameters in PCK rats treated with octreotide
Experimental: (§1) Three week old PCK rats (n=60) were divided into five groups (three animals of each gender per treatment group). Each group was divided into two subgroups. […] Each animal was injected intraperitoneally every 12 hours. […] The control groups received an equal volume of saline.
(§2) At 4, 8, 12 and 16 weeks of age, animals were anesthetized with pentobarbital (50 mg/kg body weight, ip). Blood was collected by cardiac puncture for determination of hepatic and renal laboratory parameters and cAMP levels. Liver and kidney tissue sections (5 μm) were stained with hematoxylin-eosin and picrosirius red for analysis using light microscopy. Renal and hepatic fibrosis and cystic scores were measured using Meta-Morph software (Universal Imaging, West Chester, Pa., USA), a light microscope with a color digital camera (Nikon DXM 1200), and a Pentium IBM-compatible computer (Del OptiPlex). To measure the volume of a cyst or fibrosis, a colored threshold was applied at a level that allowed cystic tissue to be distinguished from non-cystic tissue and picrosirius red-positive stained fibrotic tissue to be distinguished from the background. The cystic and fibrotic scores were expressed as a percentage of total tissue.

SSTR3 = SSTR3 (Homo sapiens, UniProt P32745); details: Froidevaux and Eberle 2002; cited from earlier work
PCK rats [2] = test: Hepatic and renal cyst volume and fibrosis score in PCK rats treated with octreotide; format: in vivo, rat
Experimental: as §1, §2

[3] = target: somatostatin receptor 2 (SSTR2) (Homo sapiens, UniProt P30874); details: Froidevaux and Eberle 2002; cited from earlier work
[4] = tested on: cAMP levels in bile ducts and serum of PCK rats; test: cAMP levels in freshly isolated bile ducts and serum of PCK rats treated with octreotide; format: in vivo, rat
Experimental: The concentration of cAMP was measured in freshly isolated and cultured bile ducts and in serum. Serum was diluted 1:10 before assay. Cultured bile ducts were first released from the gel by adding 0.4 mL of high-activity type XI collagenase for 45 min. at 37° C. and washing twice with medium. cAMP concentrations were determined using the Bridge-It™ cAMP designer assay (Mediomics, LLC, St. Louis, Mo.). Results were expressed as pmol per μg of DNA. The amount of DNA in a single IBDU was determined using the DNeasy Tissue Kit (QIAGEN Inc., Valencia, Calif.).
(§3) Each group was divided into two subgroups. […] Each animal was injected intraperitoneally every 12 hours. […] The control groups received an equal volume of saline.

PCK rats [5] = test: Body, liver and kidney weight in PCK rats treated with octreotide; format: in vivo, rat
Experimental: as §3

[6] = Male PCK rats, Group IV, 16 weeks of treatment, Octreotide (10 μg)
[7] = Male PCK rats, HD, 4 weeks of treatment, Octreotide (10 μg)
[8] = octreotide 10 μg/kg, 4 to 16 weeks
[9] = 100 μg/kg, 4 weeks, vs 10 μg/kg
[10] = octreotide-treated vs saline-treated PCK rats
[11] = Female PCK rats, Group I, 4 weeks of treatment, Octreotide (10 μg)
[12] = Female PCK rats, Group II, 8 weeks of treatment, Octreotide (10 μg)
[13] = Female PCK rats, Group III, 12 weeks of treatment, Octreotide (10 μg)
[14] = Female PCK rats, Group IV, 16 weeks of treatment, Octreotide (10 μg)
[15] = Female PCK rats, HD, 4 weeks of treatment, Octreotide (100 μg)
[16] = Male PCK rats, Group I, 4 weeks of treatment, Octreotide (10 μg)
[17] = Male PCK rats, Group II, 8 weeks of treatment, Octreotide (10 μg)
[18] = Male PCK rats, Group III, 12 weeks of treatment, Octreotide (10 μg)
[19] = Male PCK rats, HD, 4 weeks of treatment, Octreotide (100 μg)

Sequence of SSTR3 (P32745 whole entry, species assumed): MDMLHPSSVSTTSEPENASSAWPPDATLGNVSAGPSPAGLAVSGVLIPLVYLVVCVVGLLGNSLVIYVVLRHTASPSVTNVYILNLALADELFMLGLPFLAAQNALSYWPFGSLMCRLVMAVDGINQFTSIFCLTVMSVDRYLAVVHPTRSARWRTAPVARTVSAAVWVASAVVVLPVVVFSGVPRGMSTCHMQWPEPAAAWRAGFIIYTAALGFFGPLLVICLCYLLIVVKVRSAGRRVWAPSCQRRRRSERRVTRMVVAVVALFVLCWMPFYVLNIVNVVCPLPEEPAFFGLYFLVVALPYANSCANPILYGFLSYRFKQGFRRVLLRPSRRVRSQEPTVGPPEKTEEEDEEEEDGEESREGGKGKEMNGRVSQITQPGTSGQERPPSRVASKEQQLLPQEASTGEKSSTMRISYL
Sequence of somatostatin receptor 2 (SSTR2) (P30874 whole entry, species assumed): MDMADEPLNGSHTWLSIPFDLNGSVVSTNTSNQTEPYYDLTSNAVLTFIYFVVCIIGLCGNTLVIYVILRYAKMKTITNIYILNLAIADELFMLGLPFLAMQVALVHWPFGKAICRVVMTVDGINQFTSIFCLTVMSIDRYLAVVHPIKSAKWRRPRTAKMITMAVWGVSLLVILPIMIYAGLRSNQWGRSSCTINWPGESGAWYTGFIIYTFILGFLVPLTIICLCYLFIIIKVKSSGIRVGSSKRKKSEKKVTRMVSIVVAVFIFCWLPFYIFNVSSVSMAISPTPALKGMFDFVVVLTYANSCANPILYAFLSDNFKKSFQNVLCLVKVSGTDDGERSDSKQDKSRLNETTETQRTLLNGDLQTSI

## C[C@@H](O)[C@@H]1NC(=O)[C@H](CCCCN)NC(=O)[C@@H](Cc2c[nH]c3ccccc23)NC(=O)[C@H](Cc2ccccc2)NC(=O)[C@@H](NC(=O)[C@H](N)Cc2ccccc2)CSSC[C@@H](C(=O)N[C@H](CO)[C@@H](C)O)NC1=O [Octreotide, octreotide]
PCK rats [1]; [6]
  Protein total: 5.4 ± 0.35 g/dL
PCK rats [1]; [7]
  Alkaline Phosphatase: 276.8 ± 31.2 U/L
  Aspartate Aminotransferase: 191.0 ± 24.4 U/L
  Bilirubin Direct: 0.1 mg/dL
  Bilirubin Total: 0.2 mg/dL
  Blood Urea Nitrogen: 17.1 ± 1.2 mg/dL
  Creatinine: 0.5 mg/dL
  Protein total: 5.4 ± 0.15 g/dL
PCK rats [1]; any dose administered (10 or 100 μg/kg ip every 12 hours)
  hepatic or renal function: did not affect
SSTR3
  binding affinity: low affinity
PCK rats [2]; higher dose (100 μg/kg, 4 weeks)
  cystic volume and fibrosis score in liver and kidney at higher dose: even more significant reduction
PCK rats [2]; octreotide 10 μg/kg
  hepatic fibrosis: significant reduction
  renal fibrosis: significant reduction
PCK rats [2]; [8]
  cystic volume in kidney: decreased consistently and progressively
  cystic volume in liver: decreased consistently and progressively
[3]
  binding affinity: high affinity
[4]; [9]
  cAMP concentration in bile duct and serum at higher dose: to an even greater extent
[4]; [10]
  cAMP levels in freshly isolated bile ducts: lowered
  cAMP levels in serum: lowered
PCK rats [5]; [9]
  effect on liver and kidney weights at higher dose: more significant effect
PCK rats [5]; [11]
  Kidney weight: 1.31 ± 0.04 % body weight
  Kidney weight, decrease (↓) vs saline: (↓11.8%)
  Liver weight: 5.34 ± 00.24 % body weight
  Liver weight, decrease (↓) vs saline: (↓10.5%)
PCK rats [5]; [12]
  Kidney weight: 1.35 ± 0.06 % body weight
  Kidney weight, decrease (↓) vs saline: (↓15.0%)
  Liver weight: 5.37 ± 0.22 % body weight
  Liver weight, decrease (↓) vs saline: (↓15.8%)
PCK rats [5]; [13]
  Kidney weight: 1.42 ± 0.11 % body weight
  Kidney weight, decrease (↓) vs saline: (↓17.9%)
  Liver weight: 5.43 ± 0.24 % body weight
  Liver weight, decrease (↓) vs saline: (↓18.8%)
PCK rats [5]; [14]
  Kidney weight: 1.48 ± 0.13 % body weight
  Kidney weight, decrease (↓) vs saline: (↓20.6%)
  Liver weight: 5.62 ± 0.25 % body weight
  Liver weight, decrease (↓) vs saline: (↓21.9%)
PCK rats [5]; [15]
  Kidney weight: 1.14 ± 0.07 % body weight
  Kidney weight, decrease (↓) vs saline: (↓18.6%)
  Liver weight: 4.7 ± 0.35 % body weight
  Liver weight, decrease (↓) vs saline: (↓19.1%)
PCK rats [5]; [16]
  Kidney weight: 1.43 ± 0.04 % body weight
  Kidney weight, decrease (↓) vs saline: (↓11.2%)
  Liver weight: 4.76 ± 0.07 % body weight
  Liver weight, decrease (↓) vs saline: (↓9.0%)
PCK rats [5]; [17]
  Kidney weight: 1.52 ± 0.11 % body weight
  Kidney weight, decrease (↓) vs saline: (↓14.6%)
  Liver weight: 5.24 ± 0.57 % body weight
  Liver weight, decrease (↓) vs saline: (↓12.8%)
PCK rats [5]; [18]
  Kidney weight: 1.53 ± 0.15 % body weight
  Kidney weight, decrease (↓) vs saline: (↓16.8%)
  Liver weight: 5.31 ± 0.46 % body weight
  Liver weight, decrease (↓) vs saline: (↓17.2%)
PCK rats [5]; [6]
  Kidney weight: 1.57 ± 0.12 % body weight
  Kidney weight, decrease (↓) vs saline: (↓18.9%)
  Liver weight: 5.64 ± 0.14 % body weight
  Liver weight, decrease (↓) vs saline: (↓19.9%)
PCK rats [5]; [19]
  Kidney weight: 1.27 ± 0.13 % body weight
  Kidney weight, decrease (↓) vs saline: (↓19.3%)
  Liver weight: 4.18 ± 0.11 % body weight
  Liver weight, decrease (↓) vs saline: (↓15.1%)
PCK rats [5]; each group studied
  liver and kidney weights vs saline: significantly decreased
PCK rats [5]; male or female PCK rats
  body weight vs saline-treated: No differences
